In PubChem BioAssay AID1963852 (Molecular Pharmacology Branch, DTP, NCI, 2024):
pIC50: −log10 of the molar value.

System: 282377-053-R-J1-PDC complex spheroid viability
Experiment: Anticancer human tumor 282377-053-R-J1-PDC patient-derived colon adenocarcinoma cell line growth inhibition [POLQ]
Conditions: for pIC50: curve of first compound; for viability, T/C: stronger effect = lower value
Procedure, shortened: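 PDC + HUVEC + MSC complex spheroids; POLQ inhibitors ± partner drugs; top conc. at/near clinical Cmax, else 10 microM (SN-38 1 microM), half-log dilutions; 37 degrees C, 5% CO2.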

[1] = second compound 0.0316 µM, first compound 0.0316 µM
[2] = second compound 0.0316 µM, first compound 0.1 µM
[3] = second compound 0.1 µM, first compound 0.0316 µM
[4] = second compound 0.1 µM, first compound 0.1 µM
[5] = second compound 0.316 µM, first compound 0.0316 µM
[6] = second compound 0.316 µM, first compound 0.1 µM
[7] = second compound 1 µM, first compound 0.0316 µM
[8] = second compound 1 µM, first compound 0.1 µM
[9] = second compound 3.16 µM, first compound 0.0316 µM
[10] = second compound 3.16 µM, first compound 0.1 µM
[11] = second compound 10 µM, first compound 0.0316 µM
[12] = second compound 10 µM, first compound 0.1 µM
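Note: spheroids exposed to compounds for seven days.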
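Throughout, for viability, T/C: 100% = DMSO vehicle control viability.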

What does the source list for `CC(=O)O[C@H]1C(=O)[C@@]2(C)[C@H]([C@H](OC(=O)c3ccccc3)[C@]3(O)C[C@H](OC(=O)[C@H](O)[C@@H](NC(=O)c4ccccc4)c4ccccc4)C(C)=C1C3(C)C)[C@]1(OC(C)=O)CO[C@@H]1C[C@@H]2O` + Nc1ccc(C#CCN(C(=O)Cc2ncc(C(F)(F)F)cc2C(F)(F)F)c2ccc(F)cc2)nn1?
pIC50 (second compound 0.0316 µM): < 5.52; pIC50 (second compound 0.1 µM): < 5.52; pIC50 (second compound 0.316 µM): 5.52; pIC50 (second compound 1 µM): < 5.52; pIC50 (second compound 3.16 µM): 7.04; pIC50 (second compound 10 µM): < 5.52; viability, T/C (second compound 0.0316 µM, first compound 0.00949 µM): 102%; viability, T/C (second compound 0.0316 µM, first compound 0.03 µM): 50.7%; viability, T/C (second compound 0.0316 µM, first compound 0.0949 µM): 47.4%; viability, T/C (second compound 0.0316 µM, first compound 0.3 µM): 46.9%; viability, T/C (second compound 0.0316 µM, first compound 0.949 µM): 51.2%; viability, T/C (second compound 0.0316 µM, first compound 3 µM): 65.8%; viability, T/C (second compound 0.1 µM, first compound 0.00949 µM): 102%; viability, T/C (second compound 0.1 µM, first compound 0.03 µM): 65.9%; viability, T/C (second compound 0.1 µM, first compound 0.0949 µM): 50.4%; viability, T/C (second compound 0.1 µM, first compound 0.3 µM): 46.5%; viability, T/C (second compound 0.1 µM, first compound 0.949 µM): 53.8%; viability, T/C (second compound 0.1 µM, first compound 3 µM): 64.9%; viability, T/C (second compound 0.316 µM, first compound 0.00949 µM): 100%; viability, T/C (second compound 0.316 µM, first compound 0.03 µM): 47.7%; viability, T/C (second compound 0.316 µM, first compound 0.0949 µM): 49.7%; viability, T/C (second compound 0.316 µM, first compound 0.3 µM): 50.1%; viability, T/C (second compound 0.316 µM, first compound 0.949 µM): 47.2%; viability, T/C (second compound 0.316 µM, first compound 3 µM): 65.2%; viability, T/C (second compound 1 µM, first compound 0.00949 µM): 99.1%; viability, T/C (second compound 1 µM, first compound 0.03 µM): 57.4%; viability, T/C (second compound 1 µM, first compound 0.0949 µM): 44.2%; viability, T/C (second compound 1 µM, first compound 0.3 µM): 53.3%; viability, T/C (second compound 1 µM, first compound 0.949 µM): 57.3%; viability, T/C (second compound 1 µM, first compound 3 µM): 57.7%; viability, T/C (second compound 3.16 µM, first compound 0.00949 µM): 87.8%; viability, T/C (second compound 3.16 µM, first compound 0.03 µM): 52.8%; viability, T/C (second compound 3.16 µM, first compound 0.0949 µM): 42.3%; viability, T/C (second compound 3.16 µM, first compound 0.3 µM): 49.7%; viability, T/C (second compound 3.16 µM, first compound 0.949 µM): 45.8%; viability, T/C (second compound 3.16 µM, first compound 3 µM): 60.8%; viability, T/C (second compound 10 µM, first compound 0.00949 µM): 106%; viability, T/C (second compound 10 µM, first compound 0.03 µM): 58.8%; viability, T/C (second compound 10 µM, first compound 0.0949 µM): 49.7%; viability, T/C (second compound 10 µM, first compound 0.3 µM): 50.9%; viability, T/C (second compound 10 µM, first compound 0.949 µM): 60.9%; viability, T/C (second compound 10 µM, first compound 3 µM): 77.6%

What does the source list for `Nc1ccn(C2OC(CO)C(O)C2(F)F)c(=O)n1` (stereo unspecified) + Nc1ccc(C#CCN(C(=O)Cc2ncc(C(F)(F)F)cc2C(F)(F)F)c2ccc(F)cc2)nn1?
pIC50 (second compound 0.0316 µM): < 5.00; pIC50 (second compound 0.1 µM): < 5.00; pIC50 (second compound 0.316 µM): < 5.00; pIC50 (second compound 1 µM): < 5.00; pIC50 (second compound 3.16 µM): < 5.00; pIC50 (second compound 10 µM): < 5.00; viability, T/C [1]: 118%; viability, T/C [2]: 128%; viability, T/C (second compound 0.0316 µM, first compound 0.316 µM): 122%; viability, T/C (second compound 0.0316 µM, first compound 1 µM): 83.3%; viability, T/C (second compound 0.0316 µM, first compound 3.16 µM): 84.4%; viability, T/C (second compound 0.0316 µM, first compound 10 µM): 68.4%; viability, T/C [3]: 101%; viability, T/C [4]: 112%; viability, T/C (second compound 0.1 µM, first compound 0.316 µM): 109%; viability, T/C (second compound 0.1 µM, first compound 1 µM): 101%; viability, T/C (second compound 0.1 µM, first compound 3.16 µM): 80.4%; viability, T/C (second compound 0.1 µM, first compound 10 µM): 65.4%; viability, T/C [5]: 115%; viability, T/C [6]: 98.8%; viability, T/C (second compound 0.316 µM, first compound 0.316 µM): 107%; viability, T/C (second compound 0.316 µM, first compound 1 µM): 95.7%; viability, T/C (second compound 0.316 µM, first compound 3.16 µM): 83%; viability, T/C (second compound 0.316 µM, first compound 10 µM): 56.2%; viability, T/C [7]: 104%; viability, T/C [8]: 93.8%; viability, T/C (second compound 1 µM, first compound 0.316 µM): 108%; viability, T/C (second compound 1 µM, first compound 1 µM): 92.6%; viability, T/C (second compound 1 µM, first compound 3.16 µM): 81%; viability, T/C (second compound 1 µM, first compound 10 µM): 67.7%; viability, T/C [9]: 115%; viability, T/C [10]: 116%; viability, T/C (second compound 3.16 µM, first compound 0.316 µM): 117%; viability, T/C (second compound 3.16 µM, first compound 1 µM): 107%; viability, T/C (second compound 3.16 µM, first compound 3.16 µM): 108%; viability, T/C (second compound 3.16 µM, first compound 10 µM): 78.8%; viability, T/C [11]: 124%; viability, T/C [12]: 120%; viability, T/C (second compound 10 µM, first compound 0.316 µM): 127%; viability, T/C (second compound 10 µM, first compound 1 µM): 124%; viability, T/C (second compound 10 µM, first compound 3.16 µM): 114%; viability, T/C (second compound 10 µM, first compound 10 µM): 90.5%

Which results are given for `CC[C@@]1(O)C(=O)OCc2c1cc1n(c2=O)Cc2cc3c(CN(C)C)c(O)ccc3nc2-1` + Cc1cccc(N(C)C(=O)C2C(O)CCN2c2nc(C)cc(C(F)(F)F)c2C#N)c1?
pIC50 (second compound 0.0316 µM): < 7.00; pIC50 (second compound 0.1 µM): < 7.00; pIC50 (second compound 0.316 µM): < 7.00; pIC50 (second compound 1 µM): < 7.00; pIC50 (second compound 3.16 µM): < 7.00; pIC50 (second compound 10 µM): < 7.00; viability, T/C (second compound 0.0316 µM, first compound 0.000316 µM): 97.1%; viability, T/C (second compound 0.0316 µM, first compound 0.001 µM): 107%; viability, T/C (second compound 0.0316 µM, first compound 0.00316 µM): 118%; viability, T/C (second compound 0.0316 µM, first compound 0.01 µM): 111%; viability, T/C [1]: 94.4%; viability, T/C [2]: 76.1%; viability, T/C (second compound 0.1 µM, first compound 0.000316 µM): 98.3%; viability, T/C (second compound 0.1 µM, first compound 0.001 µM): 108%; viability, T/C (second compound 0.1 µM, first compound 0.00316 µM): 86.1%; viability, T/C (second compound 0.1 µM, first compound 0.01 µM): 109%; viability, T/C [3]: 87.6%; viability, T/C [4]: 88%; viability, T/C (second compound 0.316 µM, first compound 0.000316 µM): 90.6%; viability, T/C (second compound 0.316 µM, first compound 0.001 µM): 97.8%; viability, T/C (second compound 0.316 µM, first compound 0.00316 µM): 101%; viability, T/C (second compound 0.316 µM, first compound 0.01 µM): 105%; viability, T/C [5]: 107%; viability, T/C [6]: 77.2%; viability, T/C (second compound 1 µM, first compound 0.000316 µM): 93%; viability, T/C (second compound 1 µM, first compound 0.001 µM): 92.6%; viability, T/C (second compound 1 µM, first compound 0.00316 µM): 124%; viability, T/C (second compound 1 µM, first compound 0.01 µM): 105%; viability, T/C [7]: 124%; viability, T/C [8]: 71.9%; viability, T/C (second compound 3.16 µM, first compound 0.000316 µM): 97.5%; viability, T/C (second compound 3.16 µM, first compound 0.001 µM): 102%; viability, T/C (second compound 3.16 µM, first compound 0.00316 µM): 98.5%; viability, T/C (second compound 3.16 µM, first compound 0.01 µM): 94.6%; viability, T/C [9]: 101%; viability, T/C [10]: 71%; viability, T/C (second compound 10 µM, first compound 0.000316 µM): 87.5%; viability, T/C (second compound 10 µM, first compound 0.001 µM): 93.9%; viability, T/C (second compound 10 µM, first compound 0.00316 µM): 92.3%; viability, T/C (second compound 10 µM, first compound 0.01 µM): 81.2%; viability, T/C [11]: 96.2%; viability, T/C [12]: 65.2%
